# Tests used:
# [1] = system: okadaic acid treated HT-22 cells; test: Okadaic-acid-induced tau hyperphosphorylation cell model, cell viability; assay type: cell-based, mouse; conditions: okadaic acid 400 nM; for activity in okadaic-acid-induced hyperphosphorylation assay (in words): 10, 1, and 0.1 µM; for cell viability after okadaic acid (in words): 3 h, viability after 24 h
# Experimental: We evaluated the neuroprotective properties of the selected compounds in an okadaic-acid-induced tau hyperphosphorylation cell model. Okadaic acid, acting as a phosphatase inhibitor, induces hyperphosphorylation and accumulation of neurofilaments in the cells, thereby mirroring the hyperphosphorylated, tau-induced neurodegeneration observed in AD brain [55, 56]. […] Compounds 50 and 58 were not active.
# HT-22 cells were seeded into 96-well plates at a density of 2 × 10^4 cells per well. Okadaic acid (Merck) was added at a concentration of 400 nM and incubated for 3 h. After this time, 10, 1, and 0.1 µM of tested compounds were added and incubated in the aseptic conditions (37 °C, 5% CO2). Cell viability was determined using Presto Blue assay after 24 h. All data were normalized to the percentage survival of vehicle control. Data are represented as mean SD versus vehicle control.
# (§1) Figure 4 (A) Results of the okadaic-acid-induced hyperphosphorylation assay. The HT-22 cells were pretreated for 3 h with okadaic acid (400 nM), and the tested compounds, at the increasing non-cytotoxic concentrations, were determined using a viability assay (or with the vehicle, 10 µM DMSO in the control sample). Cell viability was measured using the PrestoBlue^TM cell viability reagent. (B–D) Results of anti-inflammatory assays in LPS-treated (100 ng/mL) BV-2 cell line. The final compounds and references were tested at increasing non-cytotoxic concentrations and with DMSO as a control sample. NO release was measured using a fluorometric assay with 2,3-diaminonaphthalene (DAN). The IL-6 and TNF-α levels were measured using an LANCE Ultra TR-FRET Detection Kit (Perkin Elmer). Statistical analysis was performed using GraphPad Prism 9.0.0. All values are expressed as mean with SD. Differences among groups were evaluated using one-way ANOVA followed by post hoc analysis (Dunnett’s multiple comparison tests) and were considered statistically significant if p < 0.05 (* p < 0.05, ** p < 0.01, and **** p < 0.0001).
# [2] = system: NO release, LPS-treated BV-2 cells; test: NO release in LPS-treated BV-2 cells (DAN fluorometric assay); assay type: cell-based, mouse; conditions: LPS 100 ng/mL, 18 h
# Source text: (§2) Lipopolysaccharide (LPS) is a potent pro-inflammatory stimulus triggering the extensive production of inflammatory mediators, including cytokines and chemokines. Consequently, it finds widespread application in inducing in vitro and in vivo models of sepsis and inflammation, including neuroinflammation. In this study, we employed LPS in the BV-2 cell line and assessed the impact of the selected compounds on the levels of NO, IL-6, and TNF-α production (Figure 4B–D). […] Moreover, all compounds surpassed the reference compound in these assays.
# (§3) The cells were pretreated with tested compounds for 1 h. After this time, lipopolysaccharide (100 ng/mL) was added and the resulting mixture was incubated for 18 h. Next, the culture supernatant was acquired to measure the levels of nitric oxide (NO), IL-6, and TNF-α, according to the following procedures.
# The NO level in the culture supernatants was measured using 2,3-diaminonaphthalene (DAN) reagent, according to the method of Nussler et al.. After 15 min of incubation at room temperature, the fluorescence intensity (EX 360; EM 440 nm) was measured using a microplate reader POLARstar Omega, (BMG Labtech). The values of nitric oxide were calculated as a percentage of control (maximal response of LPS).
# as §1
# [3] = system: IL-6 level, LPS-treated BV-2 cells; test: IL-6 level in LPS-treated BV-2 cells (LANCE Ultra TR-FRET); assay type: cell-based, mouse; conditions: LPS 100 ng/mL, 18 h
# Source text: as §2, §3
# IL-6 and TNF-α levels in the culture supernatants were measured using the LANCE Ultra TR-FRET Detection Kit (Perkin Elmer, Waltham, MA, USA), according to the manufacturer’s protocol. Each cytokine detection was performed separately in a 384-well plate, following the kit instructions. Samples were added at 15 μL/well to a 384-well plate and then premixed antibody solution was added at 5 μL/well. After 1 h of incubation of IL-6 and 3 h of incubation of TNF-α in the dark at 22 °C, the plates were read using an EnVision plate reader (Perkin Elmer) with the excitation wavelength at 320 nm, the donor emission were read at 615 nm, and the acceptor emission were read at 660 nm. The values of IL-6 and TNF-α levels were calculated as a percentage of control (maximal response of LPS).
# as §1
# [4] = Thermodynamic solubility assay in DPBS; assay type: physicochemical; conditions: for solubility at 24 h: Dulbecco's phosphate-buffered saline (DPBS), 20 °C, aqueous buffer, thermodynamic from solid, thermodynamic, 24 h shaking at room temperature, read-out: Solubility (µg/mL) ± SD
# Experimental: To address potential challenges related to poorly soluble compounds, such as variable and limited intestinal absorption, we conducted thermodynamic solubility studies.
# Quantitative HPLC analyses were performed similarly to the chemical stability studies. A standard solution of the tested compound was prepared in methanol at a concentration of 2 mg/mL. The standard solution was diluted with methanol to obtain five solutions with different concentrations ranging from 0.06 to 0.1 mg/mL or 0.035 to 0.05 mg/mL (for II), and they were quantified via HPLC. The calibration curve was plotted using AUC against the concentration (mg/mL). Next, 2 mg of the tested compound was dissolved in 1 mL of Dulbecco’s phosphate-buffered saline (DPBS), and the mixture was constantly agitated at 20 °C for 24 h in a thermoshaker. After that time, the mixture was filtered through a cellulose acetate syringe filter (pore size 0.22 μm) and the solution was analyzed via HPLC. The solubility of the tested compounds was calculated using the calibration curves (mg/mL).
# [5] = Metabolic stability in mouse liver microsomes; assay type: in vitro ADME; conditions: % compound remaining after 15 min with mouse liver microsomes, NADPH
# Experimental: Metabolic stability was assessed using pooled microsomes from the liver of male mice (CD-1) from Sigma-Aldrich (St. Louis, MO, USA). Incubations were carried out in 96-well plates. Potassium phosphate buffer (100 mM, pH 7.4, + 2 mM MgCl2) containing murine liver microsomes (0.5 mg protein/mL) was pre-incubated with test compounds or positive control (1 µM, 0.2% DMSO) at 37 °C for 15 min (N = 2). Reactions were initiated by adding NADPH (1 mM). The reactions were also incubated without NADPH to exclude non-NADPH metabolism. The reactions were terminated after 15 min via the addition of an acetonitrile quenching solution containing an internal standard (labetalol, 0.5 mM). The plates were centrifuged at 4000 rpm for 30 min at 4 °C, and an aliquot of supernatant was diluted with water before analysis via UPLC-MS/MS. The UPLC-MS/MS system consisted of a Waters Acquity Premier (Waters Corporation, Milford, MA, USA) coupled with a Waters Xevo TQ-S Cronos mass spectrometer (electrospray ionization mode ESI). […] Chromatograms were recorded using a Waters eλ PDA detector. Spectra were analyzed in the 200–700 nm range with 1.2 nm resolution and a sampling rate of 20 points/s. […]
# [6] = Chemical stability assay in phosphate buffer pH 7.4; assay type: physicochemical; conditions: phosphate buffer pH 7.4, 37 °C, 120 min
# Experimental: Before conducting the metabolic stability studies, we assessed the chemical stability of 62 and II in phosphate buffer at pH 7.4.
# Quantitative HPLC analyses were acquired using Waters Alliance e2695 separations module (Waters, Milford, CT, USA), containing 2998 photodiode array (PDA), a detector (Waters, Milford, CT, USA), and a SpeedROD RP-18e 50–4.6 mm column (Merck, KGaA, Darmstadt, Germany). The temperature of the column was preserved at 30 °C. The experiment was conducted under the following conditions: a flow rate of 5 mL/min, eluent A (water/0.1% HCOOH), eluent B (MeCN/0.1% HCOOH), and a gradient starting from 0% of B to 100% of B for 3 min. Each sample was injected at a volume of 10 μL in triplicate, and the spectra were analyzed at the maximum wavelength. Potassium phosphate buffer (100 mM, pH 7.4, + 2 mM MgCl2) was incubated with the test compounds (1 µM, 0.2% DMSO) at 37 °C for 120 min (N = 2).
Structure (SMILES),activity in okadaic-acid-induced hyperphosphorylation assay (in words) [1],NO level (in words) ([2]; 1 µM),NO level (in words) ([2]; 10 µM),IL-6 level (in words) ([3]; 10 µM),solubility at 24 h [4] [µg/mL],MLM Stability (%) ± SD [5] [%],"chemical stability, % compound remaining relative to 0 min [6] [%]",IL-6 level (in words) ([3]; 1 µM),cell viability after okadaic acid (in words) ([1]; 1 µM compound),cell viability after okadaic acid (in words) ([1]; 10 µM compound),increase in solubility compared to reference compound II [4]
"NC(=O)Nc1cc(-c2cccc(NC(=O)C3CC3)c2)sc1C(N)=O [Compound 58, 5-(3-(Cyclopropanecarboxamido)phenyl)-3-ureidothiophene-2-carboxamide]",not active,–,–,–,–,–,–,–,–,–,–
"NC(=O)Nc1cc(-c2ccnc(NC(=O)C3CCC3)c2)sc1C(N)=O [Compound 50, 5-(2-(Cyclobutanecarboxamido)pyridin-4-yl)-3-ureidothiophene-2-carboxamide]",not active,reduced NO levels,significantly decreased,significantly decreased,–,–,–,–,–,–,–
"COc1nc(-c2ccnc(NC(=O)C3CC3)c2)sc1C(N)=O [II, reference compound]",–,–,–,–,5 ± 1,100 ± 0,100,–,–,–,–
"NC(=O)Nc1cc(-c2ccnc(NC(=O)C3CC3)c2)sc1C(N)=O [Compound 49, 5-(2-(Cyclopropanecarboxamido)pyridin-4-yl)-3-ureidothiophene-2-carboxamide]",–,–,significantly decreased,significantly decreased,–,–,–,reduced IL-6 levels,increased cell viability,increased cell viability,–
"O=C1NC2(CCOC2)Nc2cc(-c3ccnc(NC(=O)C4CC4)c3)sc21 (stereo not drawn) [Compound 62, N-(4-(4′-Oxo-3′,4,4′,5-tetrahydro-1′H,2H-spiro[furan-3,2′-thieno [3,2-d]pyrimidin]-6′-yl)pyridin-2-yl)cyclopropanecarboxamide]",–,reduced NO levels,significantly decreased,significantly decreased,31 ± 1,100 ± 1,100,–,–,increased cell viability,sixfold

# Source: PMC11173485, “Connecting GSK-3β Inhibitory Activity with IKK-β or ROCK-1 Inhibition to Target Tau Aggregation and Neuroinflammation in Alzheimer’s Disease—Discovery, In Vitro and In Cellulo Activity of Thiazole-Based Inhibitors” (Molecules, 2024)
